Values after ≈ are worked out from the molar mass of the structure shown. Structures can show the parent of a compound that is named as a salt.
Tests used:
[1] = Solubility of each hydrochloride in purified water; type: physicochemical
Description: A corresponding camptothecin-21-(2-dimethylamino) ethylamide derivative (100-200 mg) was added with an aqueous 0.1 N HCl solution (1.05 eq.) and dissolved, if necessary, further by adding purified water. The solution was filtered using MILLEX-GV ([…] Filter Unit), and the filtrate was lyophilized to give the desired hydrochloride.
Table 1: Solubility of each hydrochloride in purified water

[2] = Stability test in water at each pH (phosphate buffer, HPLC); type: physicochemical; details: for Amount of the compound in test solution: room temperature (about 26° C.)
Description: 1) Preparation of calibration curve:
1.05 mg of the compound 1 and 1.10 mg of the compound A (Note) were measured, dissolved in acetonitrile 10 ml to give a standard solution. 20 μl of the standard solution was tested by HPLC method (procedure condition 1). The peak area of the compound 1 and the compound A (Note), which is obtained from the chromatograph of the standard solution is measured by an automatic integration method, and the obtained area is plotted against an amount of the compound 1 and the compound A (2.1 μg and 2.2 μg) by 20 μl to prepare a calibration curve.
[HPLC method, procedure condition 1]
Column: Inertsil ODS-3 (5-250), 40 deg.
Mobile phase: 0.01 M potassium dihydrogenphosphate-acetonitrile (3:1)
Detection: UV absorptiometer (254 nm)
About 1 mg (×3) of the compound 1 were measured, dissolved adding a phosphate buffer 10 ml of pH 10.0, 7.0 or 5.4, stirred at room temperature (about 26° C.) to make a test solution. As to each 20 μl of the test solution at the time of dissolution, 3 hr later and 24 hr later, the tests were carried out by the HPLC method (procedure condition 1). The amounts of the compound 1 were measured from the obtained area. The amounts of the compound A in each pH were measured.
The amounts (μg/ml) of the compound 1 and the compound A at the time of dissolution, 3 hr later and 24 hr later in each pH are shown in Table 7.

mouse leukemia L1210 = experiment: Anti-tumor activity: life prolonging effect in mice transplanted intraperitoneally with mouse leukemia L1210 (T/C%); type: in vivo; details: for Anti-tumor activity (T/C%): i.p. day 1, 5 and 9; for Anti-tumor activity: fraction in parentheses after T/C% (meaning not given): group of six mice
Description: 5×10^5 cells of mouse leukemia L1210 were transplanted intraperitoneally to a group of six female CDP1 mice (7 weeks old, body weight 17-19 g). A test substance was administered intraperitoneally on day 1, 5 and 9, and its life prolonging effect was observed. In a case of the administration of a test substance as an acid addition salt, it was dissolved in purified water. The total administration amount was 1.56-400 mg/kg. The anti-tumor activity was expressed by the value (T/C%) in which the ratio of the mean survival days of a drug administered group (T) to the mean survival days of a not administered group (C) is multiplied by 100.

`CCNC(=O)OCc1c([C@@](O)(CC)C(=O)NCCN(C)C)cc2n(c1=O)Cc1c-2nc2ccccc2c1CC` [Compound 2, 7-Ethyl-17-ethylcarbamoyloxycamptothecin-21-(2-dimethylamino)ethylamide] showed a solubility [1] of roughly 14 mg/mL (≈ 26.1 mM).
In the case of `CCc1c2c(nc3ccccc13)-c1cc([C@@](O)(CC)C(=O)NCCN(C)C)c(COC(C)=O)c(=O)n1C2` [Compound A, 7-Ethyl-17-acetoxycamptothecin-21-(2-dimethylamino)ethylamide hydrochloride, reference compound], the “Amount of the compound in test solution” value ([2]; pH 5.4, 3 hr later) is reported as 126 µg/mL, the “Amount of the compound in test solution” value ([2]; pH 5.4, 24 hr later) is reported as 124 µg/mL and the “Amount of the compound in test solution” value ([2]; pH 5.4, at the time of dissolution) is reported as 126 µg/mL. The “Amount of the compound in test solution” value ([2]; pH 7.0, 3 hr later) was 110 µg/mL, the “Amount of the compound in test solution” value ([2]; pH 7.0, 24 hr later) was 107 µg/mL and the “Amount of the compound in test solution” value ([2]; pH 7.0, at the time of dissolution) was 110 µg/mL. For the same compound, the “Amount of the compound in test solution” value ([2]; pH 10.0, 3 hr later) was 79 µg/mL, the “Amount of the compound in test solution” value ([2]; pH 10.0, 24 hr later) was 16 µg/mL and the “Amount of the compound in test solution” value ([2]; pH 10.0, at the time of dissolution) was 102 µg/mL. The degraded at 24 h ([2]; phosphate buffer, pH 10.0, after 24 hr, read-out: hydrolyzed in the aqueous solution) was 84%.
`CCCCOC(=O)OCc1c([C@@](O)(CC)C(=O)NCCN(C)C)cc2n(c1=O)Cc1c-2nc2ccccc2c1CC` [Compound 21, 17-n-Butoxycarbonyloxy-7-ethyl-camptothecin-21-(2l-dimethylamino)ethylamide] gave a solubility [1] of no less than 54 mg/mL.
In the case of `CCc1c2c(nc3ccccc13)-c1cc([C@@](O)(CC)C(=O)NCCN(C)C)c(COC(=O)Nc3ccc(F)cc3)c(=O)n1C2` [Compound 10, 7-Ethyl-17-(4-fluorophenylcarbamoyloxy)-camptothecin-21-(2-dimethylamino)ethylamide], the “Anti-tumor activity (T/C%)” value (mouse leukemia L1210; Table 4, total dose 3.13 mg/kg) is reported as 115%, the “Anti-tumor activity (T/C%)” value (mouse leukemia L1210; Table 4, total dose 6.25 mg/kg) is reported as 118% and the “Anti-tumor activity (T/C%)” value (mouse leukemia L1210; Table 4, total dose 12.5 mg/kg) is reported as 123%. For the same compound, the “Anti-tumor activity (T/C%)” value (mouse leukemia L1210; Table 4, total dose 25 mg/kg) was 136%, the “Anti-tumor activity (T/C%)” value (mouse leukemia L1210; Table 4, total dose 50 mg/kg) was 174% and the “Anti-tumor activity (T/C%)” value (mouse leukemia L1210; Table 4, total dose 100 mg/kg) was 221%. For the same compound, the “Anti-tumor activity (T/C%)” value (mouse leukemia L1210; Table 4, total dose 200 mg/kg) was 310% and the solubility [1] was roughly 7 mg/mL (≈ 11.6 mM).
For `CCc1c2c(nc3ccccc13)-c1cc([C@@](O)(CC)C(=O)NCCN(C)C)c(COC(=O)Nc3cccc(F)c3)c(=O)n1C2` [Compound 9, 7-Ethyl-17-(3-fluorophenylcarbamoyloxy)-camptothecin-21-(2-dimethylamino)ethylamide], the solubility [1] was roughly 28 mg/mL (≈ 46.5 mM).
With `CCc1c2c(nc3ccccc13)-c1cc([C@@](O)(CC)C(=O)NCCN(C)C)c(COC(=O)Nc3ccccc3)c(=O)n1C2` [Compound 7, 7-Ethyl-17-phenylcarbamoyloxycamptothecin-21-(2-dimethylamino)ethylamide] the solubility [1] was roughly 15 mg/mL (≈ 25.7 mM).
For `CCCCNC(=O)OCc1c([C@@](O)(CC)C(=O)NCCN(C)C)cc2n(c1=O)Cc1c-2nc2ccccc2c1CC` [Compound 5, 17-n-Butylcarbamoyloxy-7-ethylcamptothecin-21-(2-dimethylamino)ethylamide], the solubility [1] was roughly 10 mg/mL (≈ 17.7 mM).
`CCc1c2c(nc3ccccc13)-c1cc([C@@](O)(CC)C(=O)NCCN(C)C)c(COC(=O)NC3CCCCC3)c(=O)n1C2` [Compound 6, 7-Ethyl-17-c-hexylcarbamoyloxycamptothecin-21-(2-dimethylamino)ethylamide] showed a solubility [1] of roughly 50 mg/mL (≈ 84.8 mM).
In the case of `CCc1c2c(nc3ccccc13)-c1cc([C@@](O)(CC)C(=O)NCCN(C)C)c(COC(=O)NC(C)C)c(=O)n1C2` [Compound 4, 7-Ethyl-17-iso-propylcarbamoyloxycamptothecin-21-(2-dimethylamino)ethylamide], the “Anti-tumor activity (T/C%)” value (mouse leukemia L1210; Table 4, total dose 3.13 mg/kg) is reported as 121%, the “Anti-tumor activity (T/C%)” value (mouse leukemia L1210; Table 4, total dose 6.25 mg/kg) is reported as 123% and the “Anti-tumor activity (T/C%)” value (mouse leukemia L1210; Table 4, total dose 12.5 mg/kg) is reported as 121%. For the same compound, the “Anti-tumor activity (T/C%)” value (mouse leukemia L1210; Table 4, total dose 25 mg/kg) was 123%, the “Anti-tumor activity (T/C%)” value (mouse leukemia L1210; Table 4, total dose 50 mg/kg) was 149% and the “Anti-tumor activity (T/C%)” value (mouse leukemia L1210; Table 4, total dose 100 mg/kg) was 205%. For the same compound, the “Anti-tumor activity: fraction in parentheses after T/C% (meaning not given)” value (mouse leukemia L1210; Table 4, total dose 200 mg/kg) was 1/6, the “Anti-tumor activity (T/C%)” value (mouse leukemia L1210; Table 4, total dose 200 mg/kg) was 323% and the solubility [1] was roughly 50 mg/mL (≈ 91 mM).
With `CCc1c2c(nc3ccccc13)-c1cc([C@@](O)(CC)C(=O)NCCN(C)C)c(COC(=O)N(CC)CC)c(=O)n1C2` [Compound 15, 17-Diethylcarbamoyloxy-7-ethylcamptothecin-21-(2-dimethylamino)ethylamide] the solubility [1] was roughly 53 mg/mL (≈ 94 mM).
For `CCc1c2c(nc3ccccc13)-c1cc([C@@](O)(CC)C(=O)NCCN(C)C)c(COC(=O)OC)c(=O)n1C2` [Compound 18, 7-Ethyl-17-methoxycarbonyloxycamptothecin-21-(2-dimethylamino)ethylamide], the solubility [1] was no less than 50 mg/mL.
In the case of `CCc1c2c(nc3ccccc13)-c1cc(C(O)(CC)C(=O)[O-])c(CO)c(=O)n1C2.[Na+]` (stereo not shown) [Reference Compound, 7-ethylcamptothecin sodium salt, reference compound], the “Anti-tumor activity (T/C%)” value (mouse leukemia L1210; Table 2, total dose 3.13 mg/kg) is reported as 129%, the “Anti-tumor activity (T/C%)” value (mouse leukemia L1210; Table 2, total dose 6.25 mg/kg) is reported as 142% and the “Anti-tumor activity (T/C%)” value (mouse leukemia L1210; Table 2, total dose 12.5 mg/kg) is reported as 153%. For the same compound, the “Anti-tumor activity (T/C%)” value (mouse leukemia L1210; Table 2, total dose 25 mg/kg) was 211%, the “Anti-tumor activity (T/C%)” value (mouse leukemia L1210; Table 2, total dose 50 mg/kg) was 266% and the “Anti-tumor activity: fraction in parentheses after T/C% (meaning not given)” value (mouse leukemia L1210; Table 2, total dose 100 mg/kg) was 2/6. For the same compound, the “Anti-tumor activity (T/C%)” value (mouse leukemia L1210; Table 2, total dose 100 mg/kg) was 339%, the “Anti-tumor activity: fraction in parentheses after T/C% (meaning not given)” value (mouse leukemia L1210; Table 2, total dose 200 mg/kg) was 1/6 and the “Anti-tumor activity (T/C%)” value (mouse leukemia L1210; Table 2, total dose 200 mg/kg) was 303%. For the same compound, the “Anti-tumor activity (T/C%)” value (mouse leukemia L1210; Table 4, total dose 3.13 mg/kg) was 126%, the “Anti-tumor activity (T/C%)” value (mouse leukemia L1210; Table 4, total dose 6.25 mg/kg) was 146% and the “Anti-tumor activity (T/C%)” value (mouse leukemia L1210; Table 4, total dose 12.5 mg/kg) was 151%. The “Anti-tumor activity (T/C%)” value (mouse leukemia L1210; Table 4, total dose 25 mg/kg) was 215%, the “Anti-tumor activity (T/C%)” value (mouse leukemia L1210; Table 4, total dose 50 mg/kg) was 249% and the “Anti-tumor activity: fraction in parentheses after T/C% (meaning not given)” value (mouse leukemia L1210; Table 4, total dose 100 mg/kg) was 4/6. For the same compound, the “Anti-tumor activity (T/C%)” value (mouse leukemia L1210; Table 4, total dose 100 mg/kg) was 513%, the “Anti-tumor activity: fraction in parentheses after T/C% (meaning not given)” value (mouse leukemia L1210; Table 4, total dose 200 mg/kg) was 1/6 and the “Anti-tumor activity (T/C%)” value (mouse leukemia L1210; Table 4, total dose 200 mg/kg) was 362%.
For `CCOC(=O)OCc1c([C@@](O)(CC)C(=O)NCCN(C)C)cc2n(c1=O)Cc1c-2nc2ccccc2c1CC` [Compound 19, 7-Ethyl-17-ethoxycarbonyloxycamptothecin-21-(2-dimethylamino)ethylamide], the solubility [1] was no less than 52 mg/mL.
For `CCc1c2c(nc3ccccc13)-c1cc([C@@](O)(CC)C(=O)NCCN(C)C)c(COC(=O)Nc3ccccc3F)c(=O)n1C2` [Compound 8, 7-Ethyl-17-(2-fluorophenylcarbamoyloxy)-camptothecin-21-(2-dimethylamino)ethylamide], the solubility [1] was roughly 11 mg/mL (≈ 18.3 mM).
In the case of `CCCOC(=O)OCc1c([C@@](O)(CC)C(=O)NCCN(C)C)cc2n(c1=O)Cc1c-2nc2ccccc2c1CC` [Compound 20, 7-Ethyl-17-n-propoxycarbonyloxycamptothecin-21-(2-dimethylamino)ethylamide], the solubility [1] is reported as no less than 52 mg/mL.
In the case of `CCc1c2c(nc3ccccc13)-c1cc([C@@](O)(CC)C(=O)NCCN(C)C)c(COC(=O)N3CCN(CC(=O)NC(C)C)CC3)c(=O)n1C2` [Compound 16, 7-Ethyl-17-(4-isopropylaminocarbonylmethyl-piperazino)-carbamoyloxy-camptothecin-21-(2-dimethylamino)ethylamide], the solubility [1] is reported as no less than 33 mg/mL.
Work on `CCc1c2c(nc3ccccc13)-c1cc([C@@](O)(CC)C(=O)NCCN(C)C)c(COC(=O)Nc3cccc4ccccc34)c(=O)n1C2` [Compound 11, 7-Ethyl-17-(1-naphthylcarbamoyloxy)-camptothecin-21-(2-dimethylamino)ethylamide] yielded a solubility [1] of roughly 5 mg/mL (≈ 7.89 mM).

From patent US6310210A, “Camptothecin derivatives” (Kabushiki Kaisha Yakult Honsha, priority 1997, dated 2001)
